What was measured:
V. vulnificus LuxO-C [1] = biological target: T1, V. vulnificus LuxO-C (Vibrio vulnificus, UniProt Q8CWJ5); test: NADH-coupled ATPase assay, fit to one-inhibitor-per-oligomer model; format: biochemical; parameters: catalytic (C) domain only, R and D domains absent; C-terminal His6 tag; expressed in E. coli BL21(DE3); hexamer 173 kDa theoretical; conditions: competitive with ATP; 100 μM LuxO-C, 2 mM ATP, pH 7.4, 23°C, 4% DMSO; K is affinity relative to ATP (dimensionless ratio)
V. vulnificus LuxO-C [2] = biological target: T1, V. vulnificus LuxO-C; conditions: pH 7.4, 23°C; turnover number versus LuxO-C concentration only in Figure 4A

T1 sequence (Q8CWJ5 132-378): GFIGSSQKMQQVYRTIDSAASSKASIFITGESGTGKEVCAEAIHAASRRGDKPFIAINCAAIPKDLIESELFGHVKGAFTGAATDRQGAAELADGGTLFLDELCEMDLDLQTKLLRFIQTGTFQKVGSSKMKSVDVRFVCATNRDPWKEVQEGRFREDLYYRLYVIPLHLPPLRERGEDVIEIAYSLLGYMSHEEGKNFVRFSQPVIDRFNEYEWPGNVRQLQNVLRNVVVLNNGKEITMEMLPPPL

AzaU
K (= Kd^ATP / Kd^AzaU) (V. vulnificus LuxO-C [1]): 34 ± 2

Nc1ncnc2c1ncn2[C@@H]1O[C@H](COP(=O)(O)OP(=O)(O)OP(=O)(O)O)[C@@H](O)[C@H]1O [ATP]
NADH-coupled ATPase assay (V. vulnificus LuxO-C [2]): V. vulnificus LuxO-C

From publication PMC4878744, “Structure, Regulation, and Inhibition of the Quorum-Sensing Signal Integrator LuxO” (PLoS Biology, 2016)
